Test results published in BigSolDB 2.1.

Conditions: in ethanol

CC(C)C1=CC2=CC[C@@H]3[C@](C)(CCC[C@@]3(C)C(=O)O)[C@H]2CC1
Conditions	solubility (mole fraction)
285.07 K	0.0165
288.7 K	0.0183
292 K	0.0202
294.8 K	0.0219
297.05 K	0.0235
299.63 K	0.0253
301.8 K	0.0272
304.05 K	0.0291
306.05 K	0.0311
308.22 K	0.0335
310.35 K	0.036
312.35 K	0.0385
315.23 K	0.041
316.85 K	0.0439
319.03 K	0.0467
